For one molecule, IC50 results are on record in patent US20230346986A1, “METHODS AND AGENTS FOR THE DETECTION AND TREATMENT OF CANCER” (CASE WESTERN RESERVE UNIVERSITY, priority 2019, published 2023).

Structures are written as SMILES.

For the assay, the target named is T1, PSMA (Homo sapiens, UniProt Q04609).
T1 construct: endogenous in cells; host or cells: LNcap cells
In words: Competition binding assay with 3H-ZJ24 on LNcap cells. Particulars: 3H-ZJ24 12 nmol/L, 1 h at 37° C. As for the experimental part: […] used to test the binding affinity of NPs. Specifically, […] cultured in RPMI1640 medium, harvested, washed with 0.5 mM cold Tris buffer, and divided into 1.5 mL Eppendorf tubes at 5×10^5 cells per tube. […] All the tubes were then centrifuged and cells were washed three times with cold PBS. […] The concentration of ligands required to inhibit 50% of binding (IC50) was determined using GraphPad Prism 3.0.

T1 sequence (Q04609 whole entry): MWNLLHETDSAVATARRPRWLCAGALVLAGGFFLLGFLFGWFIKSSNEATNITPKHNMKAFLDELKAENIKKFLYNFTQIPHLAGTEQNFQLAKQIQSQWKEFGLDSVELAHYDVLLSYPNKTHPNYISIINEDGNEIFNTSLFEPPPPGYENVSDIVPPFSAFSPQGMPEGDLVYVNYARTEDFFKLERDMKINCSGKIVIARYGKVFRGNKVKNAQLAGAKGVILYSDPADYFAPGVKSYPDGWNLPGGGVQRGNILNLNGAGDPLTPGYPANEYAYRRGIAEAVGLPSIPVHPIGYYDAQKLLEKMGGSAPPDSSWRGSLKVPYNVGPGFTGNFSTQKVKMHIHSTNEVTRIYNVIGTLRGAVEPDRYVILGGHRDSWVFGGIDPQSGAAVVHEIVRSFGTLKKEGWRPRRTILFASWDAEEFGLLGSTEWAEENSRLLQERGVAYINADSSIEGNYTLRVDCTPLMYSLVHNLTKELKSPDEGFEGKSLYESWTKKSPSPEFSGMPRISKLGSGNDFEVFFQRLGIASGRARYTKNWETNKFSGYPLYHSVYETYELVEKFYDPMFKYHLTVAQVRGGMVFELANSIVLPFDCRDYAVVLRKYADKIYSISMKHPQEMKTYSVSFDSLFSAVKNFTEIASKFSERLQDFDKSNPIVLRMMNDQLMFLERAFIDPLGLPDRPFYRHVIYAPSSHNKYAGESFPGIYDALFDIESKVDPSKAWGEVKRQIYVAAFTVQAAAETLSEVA

Regarding `CSC[C@H](NC(=O)N[C@@H](CCC(=O)O)C(=O)O)C(=O)O` [ZJ24], the IC50 (usually the concentration that gives 50% inhibition) stood at 9.79 nM.
